Data as given in patent EP4640678A1, “NOVEL OXO-PYRIDINE COMPOUND, PREPARATION METHOD THEREFOR, AND USE THEREOF” (Chengdu Shibeikang Biomedical Technology Co., Ltd., priority 2022, dated 2024).

Tests used:
[1] = Effect of continuous in-vivo administration on general condition and food intake of rats; details: for Food intake (g, mean±SD) / food intake compared with the blank group: 500 mg/kg PO once a day for 14 days, within 24 hours after the last administration
From the text: Each group had 10 rats, equally distributed by gender. The rats received drug administrations via oral gavage once a day for 14 consecutive days, following the administration regimen outlined in the table below. The blank group was given an equal volume of a vehicle. […] Table 4 Continuous administration regimen

[2] = system: human plasma; experiment: determination of in-vitro anticoagulant effect in human plasma (APTT); assay type: biochemical; details: for APTT prolongation rate (%): healthy human plasma, 37°C for 3 min; for EC150: estimated from the APTT test results in human plasma
Experimental: After centrifugation, the plasma sample was pipetted and frozen (-80°C) for later use.
A proper amount of a compound was weighed and prepared into a 10-100 mM stock solution using 100% of DMSO (the specific concentration of the stock solution was determined based on the properties of the compound); and then working solutions with various concentrations (specifically: 1 µM, 3 µM and 10 µM, respectively) were prepared from the stock solution using the healthy human plasma as a solution and thoroughly mixed. After incubation at 37°C for 3 min, the sample was placed on an instrument (model: CS-2000I) to determine APTT.
GraphPad Prism software was used for analysis to calculate the APTT prolongation rate at each concentration.

[3] = molecular target: human FXla (Homo sapiens, UniProt P03951); experiment: Activity assay of coagulation factor FXla inhibitor (S-2366 substrate, OD405nm); assay type: biochemical; details: 5 concentrations 200 nM to 0.32 nM, 0.8 nM (2X) human FXla working solution
Sequence of human FXla (P03951 388-625 limits assumed): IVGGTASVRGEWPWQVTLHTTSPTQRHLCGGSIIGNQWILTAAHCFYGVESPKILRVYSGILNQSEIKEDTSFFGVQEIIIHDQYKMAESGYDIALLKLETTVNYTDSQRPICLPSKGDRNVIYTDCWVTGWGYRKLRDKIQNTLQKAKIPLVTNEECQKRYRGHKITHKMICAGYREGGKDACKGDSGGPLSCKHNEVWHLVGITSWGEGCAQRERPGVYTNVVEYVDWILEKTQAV
Sequence of human FXla (P03951 19-387 partner limits assumed): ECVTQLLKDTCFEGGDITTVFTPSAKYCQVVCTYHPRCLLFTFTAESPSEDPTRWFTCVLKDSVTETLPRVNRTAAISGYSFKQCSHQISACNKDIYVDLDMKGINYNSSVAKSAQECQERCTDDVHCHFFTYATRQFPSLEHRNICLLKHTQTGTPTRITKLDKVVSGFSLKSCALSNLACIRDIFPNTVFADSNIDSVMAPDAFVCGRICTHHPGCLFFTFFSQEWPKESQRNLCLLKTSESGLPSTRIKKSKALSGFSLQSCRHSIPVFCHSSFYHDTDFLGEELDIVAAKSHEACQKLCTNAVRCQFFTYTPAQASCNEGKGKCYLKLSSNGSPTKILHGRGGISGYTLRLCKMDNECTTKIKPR
From the text: X: log value of compound concentration; Y: inhibition rate (%).

| Compound | Food intake (g, mean±SD) [1] [g] | general condition of the rats ([1]; SD rats, 500 mg/kg PO once a day for 14 consecutive days) | food intake compared with the blank group ([1]; SD rats) | APTT prolongation rate (%) ([2]; 3 µM) | APTT prolongation rate (%) ([2]; 10 µM) | EC150 [2] | IC50 [3] [nM] | APTT prolongation rate (%) ([2]; 1 µM) |
| --- | --- | --- | --- | --- | --- | --- | --- | --- |
| CC[C@@H](C(=O)Nc1ccc(C(N)=O)c(F)c1)n1cc(OC)c(-c2cc(Cl)ccc2-n2cc(C(F)(F)F)nn2)cc1=O [Comparative example 1, (S)-4-(2-(4-(5-chloro-2-(4-(trifluoromethyl)-1H-1,2,3-triazol-1-yl)phenyl)-5-methoxy-2-oxopyridin-1(2H)-yl)butanamido)-2-fluorobenzamide, reference compound] | 24.98 ± 0.92 | piloerection and hypoactivity were found in 1/3 or more of the rats | significantly reduced food intake |  |  |  |  |  |
| CC[C@@H](C(=O)Nc1ccc(C(N)=O)c(Cl)c1)n1cc(OC)c(-c2cc(Cl)ccc2-n2cc(C(F)(F)F)nn2)cc1=O [Compound 1, (S)-2-chloro-4-(2-(4-(5-chloro-2-(4-(trifluoromethyl)-1H-1,2,3-triazol-1-yl)phenyl)-5-methoxy-2-oxopyridin-1(2H)-yl)butanamido)benzamide] |  |  |  | 65.8 | 136.5 | less than 1 µM | 7.53 |  |
| CC[C@@H](C(=O)Nc1ccc(C(N)=O)c(OC)c1)n1cc(OC)c(-c2cc(Cl)ccc2-n2cc(C(F)(F)F)nn2)cc1=O [Compound 5, (S)-4-(2-(4-(5-chloro-2-(4-(trifluoromethyl)-1H-1,2,3-triazol-1-yl)phenyl)-5-methoxy-2-oxopyridin-1(2H)-yl)butanamido)-2-methoxybenzamide] |  |  |  | 84.6 | 125.8 | less than 1 µM | 5.6 |  |
| CC[C@@H](C(=O)Nc1ccc(C(=O)O)c(Cl)c1)n1cc(OC)c(-c2cc(Cl)ccc2-n2cc(Cl)nn2)cc1=O [Compound 9, (S)-2-chloro-4-(2-(4-(5-chloro-2-(4-chloro-1H-1,2,3-triazol-1-yl)phenyl)-5-methoxy-2-oxopyridin-1(2H)-yl)butanamido)benzoic acid] |  |  |  | 69.5 | 103.8 |  | 6.32 | 44.3 |
| CC[C@@H](C(=O)Nc1ccc(C(N)=O)cc1F)n1cc(OC)c(-c2cc(Cl)ccc2-n2cc(C(F)(F)F)nn2)cc1=O [Compound 13, (S)-4-(2-(4-(5-chloro-2-(4-(trifluoromethyl)-1H-1,2,3-triazol-1-yl)phenyl)-5-methoxy-2-oxopyridin-1(2H)-yl)butanamido)-3-fluorobenzamide] |  |  |  | 80.2 | 175.9 | less than 1 µM | 25.5 |  |
| CC[C@@H](C(=O)Nc1ccc(C(=O)NC)c(F)c1)n1cc(OC)c(-c2cc(Cl)ccc2-n2cc(C(F)(F)F)nn2)cc1=O [Compound 17, (S)-4-(2-(4-(5-chloro-2-(4-(trifluoromethyl)-1H-1,2,3-triazol-1-yl)phenyl)-5-methoxy-2-oxopyridin-1(2H)-yl)butanamido)-2-fluoro-N-methylbenzamide] |  |  |  | 82.6 | 145.3 | less than 1 µM | 1.65 |  |
| CC[C@@H](C(=O)Nc1ccc(C(=O)NC)c(OC)c1)n1cc(OC)c(-c2cc(Cl)ccc2-n2cc(C(F)(F)F)nn2)cc1=O [Compound 18, (S)-4-(2-(4-(5-chloro-2-(4-(trifluoromethyl)-1H-1,2,3-triazol-1-yl)phenyl)-5-methoxy-2-oxopyridin-1(2H)-yl)butanamido)-2-methoxy-N-methylbenzamide] |  |  |  | 46.1 | 90.6 |  | 9.06 | 33.2 |
| [2H]C([2H])([2H])Oc1cn([C@@H](CC)C(=O)Nc2ccc(C(N)=O)c(F)c2)c(=O)cc1-c1cc(Cl)ccc1-n1cc(C(F)(F)F)nn1 [Compound 21, (S)-4-(2-(4-(5-chloro-2-(4-(trifluoromethyl)-1H-1,2,3-triazol-1-yl)phenyl)-5-(methoxy-d3)-2-oxopyridin-1(2H)-yl)butanamido)-2-fluorobenzamide] | 27.08 ± 1.23 |  | essentially the same food intake as the blank group |  |  |  |  |  |
